Source: the supplement of paper PMC10307832

Key:
Experiment in all cases: relative viability (nuclei count vs DMSO), 5 days (fraction); higher = more cells survive
[1] = compound: O=c1[nH]cc(F)c(=O)[nH]1 [5-Fluorouracil] + O=C(CCCCCCC(=O)Nc1ccccc1)NO [Vorinostat] (partner 1 µM)
In short: (§1)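 Values are medians from duplicate plates. Each reflects relative viability, defined as the nuclei count of treated wells over that of vehicle wells. Lung cancer cell lines in 1536-well plates were pin-tool dosed one day after seeding with one drug alone or with a fixed anchor-drug dose plus five library-drug doses (not always all listed) in √10 steps, then fixed, stained and imaged at 4× after 5 days.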

[2] = compound: CC1=C(CC(=O)O)c2cc(F)ccc2/C1=C\c1ccc([S+](C)[O-])cc1 [Sulindac] + CC(C)C[C@H](NC(=O)[C@H](Cc1ccccc1)NC(=O)c1cnccn1)B(O)O [Bortezomib] (partner 0.002 µM)
In short: as §1

[3] = compound: CC1=C(CC(=O)O)c2cc(F)ccc2/C1=C\c1ccc([S+](C)[O-])cc1 [Sulindac] + COc1cc2c(Oc3ccc(NC(=O)C4(C(=O)Nc5ccc(F)cc5)CC4)cc3F)ccnc2cc1OCCCN1CCOCC1 [Foretinib] (partner 0.25 µM)
In short: as §1

[4] = compound: CN[C@@H]1C[C@H]2O[C@@](C)([C@@H]1OC)n1c3ccccc3c3c4c(c5c6ccccc6n2c5c31)C(=O)NC4 [Staurosporine] + Cc1cc(Nc2cc(N3CCN(C)CC3)nc(Sc3ccc(NC(=O)C4CC4)cc3)n2)n[nH]1 [Tozasertib] (partner 0.1 µM)
In short: as §1

Cell Line | relative viability ([1]; first compound 0.02 µM) | relative viability ([1]; first compound 0.2 µM) | relative viability ([1]; first compound 0.6325 µM) | relative viability ([1]; first compound 2 µM) | relative viability ([2]; first compound 0.08 µM) | relative viability ([2]; first compound 0.253 µM) | relative viability ([2]; first compound 0.8 µM) | relative viability ([2]; first compound 2.53 µM) | relative viability ([2]; first compound 8 µM) | relative viability ([3]; first compound 0.08 µM) | relative viability ([3]; first compound 0.253 µM) | relative viability ([3]; first compound 0.8 µM) | relative viability ([3]; first compound 2.53 µM) | relative viability ([3]; first compound 8 µM) | relative viability ([4]; first compound 0.005 µM) | relative viability ([4]; first compound 0.01581 µM) | relative viability ([4]; first compound 0.05 µM) | relative viability ([4]; first compound 0.1581 µM) | relative viability ([4]; first compound 0.5 µM)
LU99A | 0.497 | 0.479 | 0.44 | 0.302 | 1.22 | 1.09 | 1.11 | 0.91 | 1.19 | 0.87 | 0.808 | 0.934 | 0.791 | 0.926 | 0.266 | 0.178 | 0.185 | 0.225 | 0.138
LXF-289 | 0.708 | 0.67 | 0.383 | 0.309 | 1.06 | 1.04 | 0.991 | 1.04 | 0.974 | 0.98 | 1.05 | 0.98 | 1.02 | 1.03 | 0.0996 | 0.072 | 0.0495 | 0.0532 | 0.0507
NCI-H23 | 0.512 | 0.582 | 0.307 | 0.21 | 0.991 | 1.26 | 0.58 | 1.25 | 1.27 | 0.879 | – | 0.782 | 0.607 | 1.03 | 0.324 | – | 0.198 | 0.157 | 0.196
NCI-H322M | 0.932 | 0.917 | 0.787 | 0.757 | 1.22 | 1.33 | 1.19 | 1.3 | 1.38 | 0.992 | 0.996 | 0.882 | 0.954 | 1 | 0.318 | 0.318 | 0.287 | 0.334 | 0.288
NCI-H441 | 0.862 | 0.581 | 0.327 | – | 0.594 | 0.54 | 0.458 | 0.422 | 1.11 | 0.992 | 1.15 | 0.86 | 1 | 1.24 | 0.392 | 0.379 | 0.231 | 0.195 | 0.208
NCI-H460 | 0.903 | 0.222 | 0.082 | 0.0565 | – | 1.19 | – | 1.12 | 1.67 | 1.3 | 1.12 | 0.667 | 1.02 | 1.08 | 0.698 | 0.113 | 0.304 | 0.0517 | 0.0214
NCI-H520 | 0.673 | 0.681 | 0.528 | 0.394 | 0.585 | 0.599 | 0.51 | 0.399 | 0.764 | 0.876 | 0.822 | – | 0.678 | 1.34 | 0.57 | 0.473 | 0.423 | 0.366 | 0.303
NCI-H596 | 0.668 | 0.553 | 0.397 | 0.384 | 1.04 | 1.08 | 0.831 | 1 | 1.21 | 0.796 | 1.05 | 0.928 | 0.97 | 0.892 | 1.02 | 0.735 | 0.572 | 0.36 | 0.288
NCI-H647 | 0.432 | 0.593 | 0.48 | 0.187 | 1.02 | 1.13 | 0.667 | 0.936 | 1.05 | 1.25 | 1.2 | 1.05 | 1.25 | 1.28 | 0.201 | 0.157 | 0.0667 | 0.0489 | 0.061
NCI-H650 | 0.414 | 0.309 | 0.264 | 0.251 | 0.845 | 0.877 | 0.862 | 0.897 | 1.08 | 0.926 | 1 | 0.997 | 0.994 | 1.19 | 0.451 | 0.238 | 0.278 | 0.193 | 0.181
NCI-H661 | 0.835 | 0.818 | 0.786 | 0.809 | 0.726 | 0.769 | 0.688 | 0.852 | 0.885 | 1.12 | 1.05 | 0.999 | 1.1 | 1.03 | 0.392 | 0.445 | 0.401 | 0.335 | 0.238
NCI-H727 | 0.953 | 1.14 | 1 | 0.902 | 0.822 | 0.884 | 0.665 | 0.742 | 0.912 | 0.789 | 0.93 | – | 0.898 | 0.826 | 0.562 | 0.429 | 0.303 | 0.318 | 0.297
NCI-H838 | 0.716 | 0.637 | 0.404 | 0.266 | 0.951 | 0.774 | 0.512 | 0.628 | 0.76 | 1.05 | 1.19 | 1.03 | 1.06 | 1.22 | 0.218 | 0.156 | 0.179 | 0.164 | 0.143
NCI-H1355 | 0.625 | 0.49 | 0.264 | 0.243 | 1.27 | 1.23 | 1.12 | 1.24 | 1.3 | 1.16 | 1.04 | – | 1.07 | 0.987 | 0.577 | 0.286 | 0.252 | 0.188 | 0.151
NCI-H1437 | 0.441 | 0.301 | 0.252 | 0.253 | 0.553 | 0.767 | 0.293 | 0.418 | 0.688 | 1.33 | 1.23 | 1 | 1.28 | 1.42 | 0.402 | – | 0.381 | 0.325 | 0.199
NCI-H1650 | 0.552 | 0.386 | 0.329 | 0.198 | 0.31 | 0.193 | 0.224 | 0.204 | 0.213 | 1.05 | 1.21 | – | 1.24 | 1.32 | 0.332 | 0.302 | 0.17 | 0.203 | 0.123
NCI-H1651 | 0.529 | 0.531 | 0.246 | 0.245 | 1.01 | 0.953 | – | 0.958 | 1.04 | 0.899 | 0.848 | – | 0.764 | 0.88 | 0.66 | 0.675 | 0.371 | 0.237 | 0.185
